Measured values from PMC6474802 (Journal of natural products, 2018).

Key:
Assay type in all cases: cell-based
TRPM8 = TRPM8 (Homo sapiens, UniProt Q7Z2W7)
TRPV1 = TRPV1 (Homo sapiens, UniProt Q8NER1)
TRPV4 = TRPV4 (Homo sapiens, UniProt Q9HBA0)
Chain of TRPV4 (Q9HBA0 whole entry): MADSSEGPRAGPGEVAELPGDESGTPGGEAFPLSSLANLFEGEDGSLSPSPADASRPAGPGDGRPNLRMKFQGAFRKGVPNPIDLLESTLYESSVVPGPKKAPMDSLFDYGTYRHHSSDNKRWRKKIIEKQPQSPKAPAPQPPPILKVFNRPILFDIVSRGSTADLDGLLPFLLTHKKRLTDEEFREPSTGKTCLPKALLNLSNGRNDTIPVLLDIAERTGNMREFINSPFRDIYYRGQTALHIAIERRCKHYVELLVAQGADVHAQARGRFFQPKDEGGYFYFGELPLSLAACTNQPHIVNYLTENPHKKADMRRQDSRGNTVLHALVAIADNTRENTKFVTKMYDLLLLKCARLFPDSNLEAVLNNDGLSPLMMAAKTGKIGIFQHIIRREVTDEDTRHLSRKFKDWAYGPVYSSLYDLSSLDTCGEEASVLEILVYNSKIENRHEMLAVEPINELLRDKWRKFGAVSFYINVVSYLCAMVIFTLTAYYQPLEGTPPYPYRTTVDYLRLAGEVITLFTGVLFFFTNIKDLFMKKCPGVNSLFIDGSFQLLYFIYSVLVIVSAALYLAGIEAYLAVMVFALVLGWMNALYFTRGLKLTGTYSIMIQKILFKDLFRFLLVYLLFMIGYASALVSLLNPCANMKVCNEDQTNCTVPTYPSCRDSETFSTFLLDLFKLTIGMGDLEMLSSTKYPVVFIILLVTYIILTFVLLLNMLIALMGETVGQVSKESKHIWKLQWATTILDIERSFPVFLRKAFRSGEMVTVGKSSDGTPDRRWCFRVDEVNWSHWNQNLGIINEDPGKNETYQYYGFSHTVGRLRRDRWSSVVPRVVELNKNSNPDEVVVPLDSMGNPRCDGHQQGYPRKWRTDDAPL

Chain of TRPM8 (Q7Z2W7 whole entry): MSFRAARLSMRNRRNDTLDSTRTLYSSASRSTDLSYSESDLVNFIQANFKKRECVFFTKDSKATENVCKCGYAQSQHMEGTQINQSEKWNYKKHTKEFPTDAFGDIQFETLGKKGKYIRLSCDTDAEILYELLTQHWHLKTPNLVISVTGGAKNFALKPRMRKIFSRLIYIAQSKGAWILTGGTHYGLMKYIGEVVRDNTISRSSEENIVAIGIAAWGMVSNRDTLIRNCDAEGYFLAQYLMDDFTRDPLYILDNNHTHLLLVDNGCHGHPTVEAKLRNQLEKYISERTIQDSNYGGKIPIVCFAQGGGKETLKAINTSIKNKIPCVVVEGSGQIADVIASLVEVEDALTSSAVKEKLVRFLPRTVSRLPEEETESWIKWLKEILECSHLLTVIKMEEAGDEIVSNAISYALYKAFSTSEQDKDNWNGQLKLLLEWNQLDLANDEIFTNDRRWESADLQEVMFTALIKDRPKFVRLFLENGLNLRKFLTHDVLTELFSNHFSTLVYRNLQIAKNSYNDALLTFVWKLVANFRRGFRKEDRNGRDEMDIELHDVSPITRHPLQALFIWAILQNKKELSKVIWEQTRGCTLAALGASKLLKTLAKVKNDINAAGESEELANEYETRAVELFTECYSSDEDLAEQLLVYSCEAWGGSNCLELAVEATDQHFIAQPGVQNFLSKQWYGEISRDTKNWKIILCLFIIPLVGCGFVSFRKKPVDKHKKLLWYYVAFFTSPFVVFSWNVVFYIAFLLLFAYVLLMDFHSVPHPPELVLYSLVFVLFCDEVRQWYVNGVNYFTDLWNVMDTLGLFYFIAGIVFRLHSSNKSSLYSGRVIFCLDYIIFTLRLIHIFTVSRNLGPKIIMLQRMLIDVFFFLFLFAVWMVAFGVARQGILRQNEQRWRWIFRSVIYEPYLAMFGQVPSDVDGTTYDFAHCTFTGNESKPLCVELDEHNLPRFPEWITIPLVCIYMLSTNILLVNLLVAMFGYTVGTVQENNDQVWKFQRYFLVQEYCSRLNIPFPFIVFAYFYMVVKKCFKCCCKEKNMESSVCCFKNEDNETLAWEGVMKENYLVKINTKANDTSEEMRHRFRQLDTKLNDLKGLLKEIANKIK
Chain of TRPV1 (Q8NER1 whole entry): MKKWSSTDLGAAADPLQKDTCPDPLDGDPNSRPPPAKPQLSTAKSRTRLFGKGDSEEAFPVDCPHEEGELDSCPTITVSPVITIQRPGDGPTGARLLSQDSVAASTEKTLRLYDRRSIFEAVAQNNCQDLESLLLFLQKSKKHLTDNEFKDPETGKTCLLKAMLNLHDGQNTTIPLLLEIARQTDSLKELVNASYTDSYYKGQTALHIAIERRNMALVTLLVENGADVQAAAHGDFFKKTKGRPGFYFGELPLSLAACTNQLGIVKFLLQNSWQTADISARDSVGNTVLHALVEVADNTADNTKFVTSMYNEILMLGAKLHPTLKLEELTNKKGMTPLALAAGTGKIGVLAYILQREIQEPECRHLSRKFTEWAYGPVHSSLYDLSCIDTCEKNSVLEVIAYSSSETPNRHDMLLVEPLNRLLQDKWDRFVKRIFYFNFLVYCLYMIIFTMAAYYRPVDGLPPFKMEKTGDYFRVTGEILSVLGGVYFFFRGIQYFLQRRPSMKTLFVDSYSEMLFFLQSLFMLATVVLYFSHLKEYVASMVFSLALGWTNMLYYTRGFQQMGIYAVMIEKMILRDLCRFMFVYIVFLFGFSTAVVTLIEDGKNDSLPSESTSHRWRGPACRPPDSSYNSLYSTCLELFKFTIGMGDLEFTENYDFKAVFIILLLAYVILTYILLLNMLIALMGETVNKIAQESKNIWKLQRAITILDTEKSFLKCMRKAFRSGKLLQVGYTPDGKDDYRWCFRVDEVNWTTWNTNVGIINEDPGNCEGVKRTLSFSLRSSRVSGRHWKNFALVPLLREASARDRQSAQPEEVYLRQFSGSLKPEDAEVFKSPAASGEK

| Substance | IC50 (TRPM8) [µM] | IC50 (TRPV1) [µM] | IC50 (TRPV4) [µM] |
| --- | --- | --- | --- |
| Onydecalin B [compound 2] | 18.5 |  |  |
| Onydecalin D [compound 4] | 61.6 |  |  |
| onydecalin A [compound 1] |  | ~81.6 | ~45.9 |
